# Assay results: ChEMBL document CHEMBL5726902, “Heterocyclic kinase inhibitors” (2019)
# Molecular target: Macrophage colony-stimulating factor 1 receptor (Homo sapiens, UniProt P07333)
# Assay: In Vitro CSF-1R Kinase Activity: The CSF-1R construct corresponds to recombinant human catalytic domain (aa 538-910), which was purchased from Invitrogen (cat #PV4092). CSF-1R was mixed with peptide substrate (biotin-TYR1, Sequence: Biotin-(Ahx)-GAEEEIYAAFFA-COOH, 4 μM final) at varying inhibitor concentrations in reaction buffer: 50 mM MOPSO pH 6.5, 10 mM MgCl2, 2 mM MnCl2, 2.5 mM DTI, 0.01% BSA, 0.1 mM Na3VO4 and 0.1 mM ATP. After about 60 min incubation at rt, the reaction was quenched by addition of EDTA (final concentration: 100 mM) and developed by addition of detection reagents (final approximate concentrations: 30 mM HEPES pH 7.0, 0.06% BSA, 0.006% Tween-20, 0.24 M KF, 80 ng/mL PT66K (europium labeled anti-phosphotyrosine antibody cat #61T66KLB Cisbio, Bedford, Mass.) and 0.6 μg/mL SAXL (Phycolink streptavidin-allophycocyanin acceptor, cat #PJ25S, Prozyme, San Leandro, Calif.). The developed reaction was incubated in the dark for about 60 min at rt, then read via a time-resolved fluorescence detector (Rubystar, BMG) using a 337 nm laser for excitation and monitoring emission wavelength at 665 nm. Within the linear range of the assay, the observed signal at 665 nm was directly related to phosphorylated product and can be used to calculate the IC50 values.
# Sequence of Macrophage colony-stimulating factor 1 receptor (P07333 whole entry, the tested form may be a part): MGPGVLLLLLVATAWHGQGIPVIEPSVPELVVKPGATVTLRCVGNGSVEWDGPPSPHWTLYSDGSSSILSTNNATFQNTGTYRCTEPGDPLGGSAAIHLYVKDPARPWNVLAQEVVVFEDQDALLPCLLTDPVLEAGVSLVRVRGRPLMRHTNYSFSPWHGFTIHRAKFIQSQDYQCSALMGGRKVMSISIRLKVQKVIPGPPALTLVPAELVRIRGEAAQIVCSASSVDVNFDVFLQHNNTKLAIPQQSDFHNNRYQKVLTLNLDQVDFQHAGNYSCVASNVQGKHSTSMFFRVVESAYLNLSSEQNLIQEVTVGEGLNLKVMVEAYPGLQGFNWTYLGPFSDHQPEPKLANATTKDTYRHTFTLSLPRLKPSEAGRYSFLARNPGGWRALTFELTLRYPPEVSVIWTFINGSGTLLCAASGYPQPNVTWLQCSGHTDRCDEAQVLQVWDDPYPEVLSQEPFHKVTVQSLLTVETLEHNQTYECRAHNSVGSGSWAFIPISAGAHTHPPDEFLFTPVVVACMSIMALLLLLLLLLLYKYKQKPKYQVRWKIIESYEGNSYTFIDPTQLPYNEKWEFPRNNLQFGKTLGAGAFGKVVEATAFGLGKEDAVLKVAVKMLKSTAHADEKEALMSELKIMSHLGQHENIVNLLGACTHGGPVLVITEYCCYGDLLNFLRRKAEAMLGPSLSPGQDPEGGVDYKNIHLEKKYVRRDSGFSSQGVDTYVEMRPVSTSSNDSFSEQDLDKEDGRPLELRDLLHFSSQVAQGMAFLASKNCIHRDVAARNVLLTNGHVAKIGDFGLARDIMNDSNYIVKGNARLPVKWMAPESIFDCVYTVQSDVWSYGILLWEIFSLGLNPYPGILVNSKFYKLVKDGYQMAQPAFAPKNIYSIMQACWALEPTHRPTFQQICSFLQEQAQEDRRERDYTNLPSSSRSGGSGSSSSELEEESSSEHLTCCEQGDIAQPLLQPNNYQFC
row,IC50,SMILES
1,< 100 nM,O[C@H]1CC[C@@H](n2cc(Nc3nc(C4CCCCC4)cn4ncnc34)cn2)CC1
2,< 100 nM,CC1(C)CC(n2cc(Nc3nc(C4CCCCC4)cn4ncnc34)cn2)CC(C)(C)O1
3,< 100 nM,O[C@H]1CC[C@H](n2cc(Nc3nc(C4CCCCC4)cn4ncnc34)cn2)CC1
